Measurements reported in PubChem BioAssay (NCI).
Values joined by “and” are separate entries in the source; they are usually repeats but may differ in a detail not shown here. Equal entries are not always repeated.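 48-hour exposure; five concentrations; linearly interpolated endpoints. Abbreviation: GI50, concentration required for 50% inhibition of growth. The concentration for full growth arrest is given as TGI.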

Tests used:
Assay in all cases: growth of human tumour cells (NCI), 48 h
[1] = system: UACC-257 melanoma
[2] = system: 786-0 renal
[3] = system: NCI-H226 lung
[4] = system: M14 melanoma
[5] = system: SK-OV-3 ovarian
[6] = system: LXFL 529 NSCLC
[7] = system: SF-539 CNS
[8] = system: MDA-MB-231 breast
[9] = system: XF 498 CNS

Row | SMILES | TGI [1] | TGI [2] | TGI [3] | TGI [4] | TGI [5] | TGI [6] | TGI [7] | GI50 [1] | GI50 [2] | GI50 [3] | GI50 [8] | TGI [8] | GI50 [4] | GI50 [5] | GI50 [7] | TGI [9]
1 | Cc1cc(N(CCC#N)CCC#N)ccc1/C=C1\N=C(c2cc([N+](=O)[O-])ccc2Cl)N(c2cccc(Cl)c2)C1=O | > 100 µM | > 100 µM | > 100 µM | > 100 µM | > 100 µM | > 100 µM | > 100 µM | – | – | – | – | – | – | – | – | –
2 | CC(C)(C)c1cc(CCC(=O)Nc2ccc(Cl)cc2)nc(NC#N)n1 | > 100 µM | > 100 µM | > 100 µM | > 100 µM | > 100 µM | > 100 µM | > 100 µM | – | – | – | – | – | – | – | – | –
3 | COCCCNC(=O)C1C(=O)C(=O)N(CCCOC)C1=O (stereo not given) | > 100 µM | > 100 µM | > 100 µM | > 100 µM | > 100 µM | > 100 µM | > 100 µM | – | – | – | – | – | – | – | – | –
4 | O=C(O)CCSC(=O)Nc1ccc([N+](=O)[O-])cc1 | > 100 µM | > 100 µM | – | > 100 µM | – | > 100 µM | > 100 µM | – | – | – | – | – | – | – | – | –
5 | CCOC1Oc2ccc(C)cc2C(=O)/C1=C\Nc1ccc(C(N)=O)cc1 (stereo not given) | 52.3 µM | 30.4 µM | 50.7 µM | 33.4 µM | > 100 µM | – | 53.2 µM | 25.5 µM | 16.3 µM | 24.3 µM | 16.7 µM | 36 µM | 17.2 µM | 21.1 µM | 18.4 µM | –
6 | CCOC(=O)/C(C#N)=C/c1[nH]c(C(=O)OCc2ccccc2)c(C)c1C | > 100 µM | > 100 µM | – | > 100 µM | > 100 µM | > 100 µM | > 100 µM | – | – | – | – | – | – | – | – | –
7 | COc1ccc(NC(=O)CC(=O)N/N=C/c2ccc(N(CCC#N)S(C)(=O)=O)cc2)cc1 | – | > 100 µM | > 100 µM | > 100 µM | > 100 µM | > 100 µM | > 100 µM | – | – | – | – | – | – | – | – | –
8 | O=[N+]([O-])c1ccc(C=NC2CCCCC2)cc1 | > 100 µM | > 100 µM | > 100 µM | > 100 µM | > 100 µM | – | > 100 µM | – | – | – | – | – | – | – | – | > 100 µM
9 | COc1ccc2c(c1)C(=O)c1c-2n(CCCn2ccnc2)c(=O)c2cc([N+](=O)[O-])ccc12 | – | – | 0.584 µM | < 0.01 µM | 1.88 µM | – | 0.0101 µM | 0.115 µM | < 0.01 µM | < 0.01 µM | 2.59 µM | > 100 µM | < 0.01 µM | < 0.01 µM | < 0.01 µM | –
10 | CC[C@@]1(c2ccccc2)C2=C(CC(C)(C)CC2=O)Nc2[nH]ncc21 | > 100 µM | > 100 µM | > 100 µM | > 100 µM | > 100 µM | – | > 100 µM | > 100 µM | > 100 µM | > 100 µM | > 100 µM | > 100 µM | > 100 µM | > 100 µM | > 100 µM | –
11 | CCCC(=O)OCC1OC(n2cnc3c(=S)nc[nH]c32)C(OC(=O)CCC)C1OC(=O)CCC (stereo not given) | > 100 µM | > 100 µM | > 100 µM | > 100 µM | 69.8 µM | – | > 100 µM | 10.7 µM | 3.46 µM | 5.77 µM | 5.71 µM | > 100 µM | 2.23 µM | 0.804 µM | 3.53 µM | –
12 | O=C(O)CCNC1CCCCC1 | > 100 µM | > 100 µM | > 100 µM | > 100 µM | > 100 µM | – | > 100 µM | > 100 µM | > 100 µM | > 100 µM | > 100 µM | > 100 µM | > 100 µM | > 100 µM | > 100 µM | –
13 | N#CC(C#N)=C1Nc2ccccc2S1 | 68.7 µM | > 100 µM | 76.8 µM | > 100 µM | > 100 µM | – | 93.7 µM | 21.4 µM | 41 µM | 27.3 µM | 43.4 µM | > 100 µM | 22.6 µM | 31.5 µM | 36.3 µM | –
14 | Cc1cc2c(cc1Cl)SC1=NN(C)S(=O)N1S2(=O)=O (stereo not given) | > 100 µM | > 100 µM | > 100 µM | > 100 µM | > 100 µM | – | > 100 µM | > 100 µM | > 100 µM | > 100 µM | > 100 µM | > 100 µM | > 100 µM | > 100 µM | > 100 µM | –
15 | NC(=O)NS(=O)(=O)c1ccc(N2N=C(C(F)(F)F)CC2c2cc(C(F)(F)F)cc(C(F)(F)F)c2)cc1 (stereo not given) | 7.18 µM | 22.7 µM | 21.8 µM | 21.1 µM | 21.3 µM | – | 24.7 µM | 2.58 µM | 7.14 µM | 7.21 µM | 10.2 µM | 22.7 µM | 4.96 µM | 7.82 µM | 11.9 µM | –
16 | CC(=O)O[C@H]1C(=O)[C@@]2(C)C(C(OC(=O)c3ccccc3)[C@]3(O)CC(OC(=O)[C@H](OC(=O)CCC(=O)O)C(NC(=O)c4ccccc4)c4ccccc4)C(C)=C1C3(C)C)C1(OC(C)=O)COC1C[C@@H]2O (stereo not given in full) | > 100 µM | > 100 µM | > 100 µM | 41.2 µM and > 100 µM | > 100 µM | – | < 0.0196 µM and 0.0584 µM | < 0.01 µM and 0.0295 µM | 0.0303 µM and 0.108 µM | – | < 0.0171 µM and 0.0486 µM | – | < 0.0111 µM and 0.0224 µM | < 0.0159 µM and 0.0343 µM | – | –
17 | CS(=O)(=O)c1ccc(-n2nc(C(F)(F)F)cc2OC2CCCC2)cc1 | > 100 µM | > 100 µM | > 100 µM | 93.5 µM | > 100 µM | – | > 100 µM | 40.1 µM | 34 µM | 34 µM | 26 µM | 71.2 µM | 32.2 µM | 51.8 µM | 39.8 µM | –
18 | Cn1c2ccccc2c2ccc3c(c21)C(=O)c1ccccc1C3=O | 67.5 µM | 47.3 µM | > 100 µM | 83 µM | 61.9 µM | – | 41.2 µM | – | – | – | – | 64.2 µM | – | – | – | –
19 | Nc1nc(N(Cc2ccccc2)c2ccccc2)c2cn[nH]c2n1 | > 100 µM | > 100 µM | > 100 µM | > 100 µM | > 100 µM | – | > 100 µM | 9.84 µM | 4.63 µM | 6.35 µM | 6.41 µM | > 100 µM | 5.22 µM | 3.73 µM | 2.95 µM | –
20 | Nc1nc2c(nnn2C2CC(O)C(CO)O2)c(=O)[nH]1 (stereo not given) | > 100 µM | > 100 µM | > 100 µM | > 92.1 µM | > 23.4 µM | – | > 41 µM | > 48.9 µM | 2.99 µM | 8.75 µM | 5.41 µM | > 100 µM | 4.47 µM | 0.937 µM | 3.12 µM | –
